Structures can show the parent of a compound that is named as a salt.
Key:
[1] = target: T1, α-1A adrenoreceptor (rat submaxillary gland) (Rattus norvegicus, UniProt P43140); assay: In vitro [3H]-prazosin radioligand binding, pharmacologically defined α-1A adrenoreceptor (rat submaxillary gland)
T1 construct: Rat submaxillary glands were used for α-1A adrenoreceptors; from tissue; host or cells: rat submaxillary gland membranes
T1 sequence (P43140 1-466): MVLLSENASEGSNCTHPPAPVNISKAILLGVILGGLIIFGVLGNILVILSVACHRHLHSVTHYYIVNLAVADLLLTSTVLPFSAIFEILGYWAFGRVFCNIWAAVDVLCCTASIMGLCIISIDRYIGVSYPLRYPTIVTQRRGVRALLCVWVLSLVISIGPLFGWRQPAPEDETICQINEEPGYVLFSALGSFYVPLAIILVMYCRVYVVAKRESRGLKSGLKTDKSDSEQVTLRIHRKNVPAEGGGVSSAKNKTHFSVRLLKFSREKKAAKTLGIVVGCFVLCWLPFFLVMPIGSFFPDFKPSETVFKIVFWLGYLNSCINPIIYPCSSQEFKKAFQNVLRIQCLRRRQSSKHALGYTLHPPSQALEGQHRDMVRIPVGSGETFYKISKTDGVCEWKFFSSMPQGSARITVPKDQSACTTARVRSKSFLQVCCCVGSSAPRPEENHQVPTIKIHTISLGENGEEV
Procedure: (§1) Additionally, binding affinity against the pharmacologically defined α-1A adrenoreceptor (rat submaxillary gland) was measured.
(§2) On the fifth day of culture, growth medium was removed from cells grown in roller bottles, and the cells were washed twice with PBS (Sigma, 120 mM NaCl, 2.7 mM KCl, 10 mM Na2 HPO4 --NaH2 PO4, pH=7.4). Cells were detached from the roller bottles by incubating for 15 minutes at 37° C. in a Tris-EDTA solution (10 mM Tris, 100 mM NaCl, 1 mM EDTA, pH=7.4). The cell suspension from each roller bottle was decanted into tared centrifuge tubes and kept on ice. An aliquot of each cell suspension was generally taken for cell counting. Cells were centrifuged at 3000×G for 5 min at 2°-4° C., washed with PBS and recentrifuged. The supernatant was decanted and the pellet weighed to determine the wet weight of cells. Cells were washed a final time in 40 vol 5 mM Tris-HCl, 5 mM EDTA, pH=7.7, and centrifuged at 40,000×G for 10 minutes. Cells were homogenized in 10 mL of 50 mM Tris-HCl, 5 mM EDTA (pH=7.4) and diluted to 40 mL/tube. Homogenates were centrifuged at 40,000×G for 10 minutes. The supernatant was decanted and the pellets rehomogenized in 50 mM Tris-HCl (pH=7.4) and centrifuged as before. The supernatant was decanted and the homogenate resuspended in 6.25 volumes (per gram wet weight) of 50 mM Tris-HCl and aliquots of the pooled homogenates frozen in liquid N2 and stored at -70° C. until the time of assay. Rat submaxillary glands were used for α-1A adrenoreceptors and were prepared essentially as described (Michel, A. D., Loury, D. N. and Whiting, R. L., Brit. J. Pharmacol. 98: 83-889 (1989)).
(§3) Receptor binding assays for α-1 adrenoreceptors were performed essentially as described by Greengrass and Bremner (Eur. J. Pharmacol. 55: 323-326 (1979)). […] Radioactivity was determined by standard liquid scintillation techniques. Data were analyzed as previously described (Hancock, A. A., Kyncl, J. J., Martin, Y. C. and DeBernardis, J. F., J Receptor Res. 8: 23-46 (1988)).

[2] = target: T2, α-1b adrenoreceptor (hamster) (Mesocricetus auratus, UniProt P18841); assay: In vitro [3H]-prazosin radioligand binding, cloned α-1b adrenoreceptor expressed in LTK cells
T2 construct: expressed in transfected cells; cDNA from TULCO; membranes
T2 sequence (P18841 1-515): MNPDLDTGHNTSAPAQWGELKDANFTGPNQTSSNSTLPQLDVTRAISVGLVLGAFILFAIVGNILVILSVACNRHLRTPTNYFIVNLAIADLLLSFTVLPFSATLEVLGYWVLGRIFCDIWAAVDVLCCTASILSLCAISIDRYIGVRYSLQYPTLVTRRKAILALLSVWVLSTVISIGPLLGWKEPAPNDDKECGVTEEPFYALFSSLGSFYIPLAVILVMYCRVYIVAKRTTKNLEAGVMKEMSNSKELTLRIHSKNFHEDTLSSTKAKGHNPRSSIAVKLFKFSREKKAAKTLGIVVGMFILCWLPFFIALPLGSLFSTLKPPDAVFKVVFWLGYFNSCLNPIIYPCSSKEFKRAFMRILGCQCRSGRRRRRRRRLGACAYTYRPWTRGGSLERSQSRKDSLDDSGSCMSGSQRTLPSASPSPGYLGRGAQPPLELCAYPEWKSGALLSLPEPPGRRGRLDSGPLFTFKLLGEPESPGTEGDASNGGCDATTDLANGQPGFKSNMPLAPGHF
Description: (§4) The cDNA clones encoding the α-1 adrenoreceptors (α-1a, α-1b, and α-1d) were obtained from TULCO (Triangle Universities Licensing Consortium, Research Triangle Park, N.C.) and inserted into the eukaryotic expression vector SnaB30. In this vector, expression of the adrenoreceptor gene is under the transcriptional control of an SV40 early promoter. Positive drug selection is provided by a neomycin-resistance gene. Mouse fibroblast cells (LTK) were transfected with the α1 expression plasmids and grown in Dulbecco's modified Eagle's medium (DMEM) containing 10% fetal calf serum and […]. Stable G418-resistant parental lines were generated, with successful expression of adrenoreceptor protein monitored using radioligand binding techniques. Stable single cell clones derived from the parental lines were screened in adrenoreceptor binding assays to identify clones having high adrenoreceptor density. Roller bottle cultures of the cloned lines were used to provide cell membranes for subsequent adrenoreceptor binding characterization studies. A cell line containing the SnaB30 vector expressing the human erythropoietin gene served as a negative control.
(§5) For adrenoreceptor binding assays, large scale membrane preparations were utilized in which 6 million cells were seeded into small (450 cm^2) Corning tissue culture roller bottles. 200 mL of DMEM containing 10% fetal calf serum and 300 μM G418 were added to each roller bottle. A 95% air/5% CO2 gas mixture (sterile) was injected into each roller bottle prior to sealing. The bottles were then incubated at 37° C. on a roller rack for 5 days. Cells were re-fed with fresh medium after 3 days in culture.
as §2, §3

[3] = target: T3, α-1d adrenoreceptor (rat) (Rattus norvegicus, UniProt P23944); assay: In vitro [3H]-prazosin radioligand binding, cloned α-1d adrenoreceptor expressed in LTK cells
T3 construct: expressed in transfected cells; cDNA from TULCO; membranes
T3 sequence (P23944 1-561): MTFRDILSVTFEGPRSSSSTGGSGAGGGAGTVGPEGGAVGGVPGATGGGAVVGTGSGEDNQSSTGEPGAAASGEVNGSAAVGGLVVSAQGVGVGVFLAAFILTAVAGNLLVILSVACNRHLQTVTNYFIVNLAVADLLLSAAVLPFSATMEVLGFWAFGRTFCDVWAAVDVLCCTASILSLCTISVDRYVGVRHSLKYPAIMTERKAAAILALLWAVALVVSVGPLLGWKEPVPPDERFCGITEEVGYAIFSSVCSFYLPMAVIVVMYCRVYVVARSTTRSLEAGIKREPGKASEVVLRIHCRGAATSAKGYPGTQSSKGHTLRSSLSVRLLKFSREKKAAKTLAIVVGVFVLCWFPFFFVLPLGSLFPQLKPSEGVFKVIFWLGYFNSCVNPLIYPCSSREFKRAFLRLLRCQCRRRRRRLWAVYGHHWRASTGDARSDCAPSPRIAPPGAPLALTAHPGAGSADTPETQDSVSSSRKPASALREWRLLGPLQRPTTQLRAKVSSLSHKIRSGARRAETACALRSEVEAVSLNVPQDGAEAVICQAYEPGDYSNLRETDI
Procedure: as §1, §4, §5, §2, §3

[4] = target: T4, α-1a adrenoreceptor (bovine) (Bos taurus, UniProt P18130); assay: In vitro [3H]-prazosin radioligand binding, cloned α-1a adrenoreceptor expressed in LTK cells
T4 construct: expressed in transfected cells; cDNA from TULCO; membranes
T4 sequence (P18130 1-466): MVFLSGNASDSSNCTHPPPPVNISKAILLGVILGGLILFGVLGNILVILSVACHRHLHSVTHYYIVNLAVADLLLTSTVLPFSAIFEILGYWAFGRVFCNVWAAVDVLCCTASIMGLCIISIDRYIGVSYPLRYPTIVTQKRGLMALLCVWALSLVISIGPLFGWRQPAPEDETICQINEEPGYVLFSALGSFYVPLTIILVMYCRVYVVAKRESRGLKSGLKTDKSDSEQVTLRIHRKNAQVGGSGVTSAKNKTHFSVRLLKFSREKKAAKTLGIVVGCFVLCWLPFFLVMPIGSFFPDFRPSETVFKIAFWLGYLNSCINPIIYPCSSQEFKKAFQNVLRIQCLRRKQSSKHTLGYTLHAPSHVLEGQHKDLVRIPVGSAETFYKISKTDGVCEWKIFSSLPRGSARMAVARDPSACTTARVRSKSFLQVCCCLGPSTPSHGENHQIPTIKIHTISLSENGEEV
Description: as §4, §5, §2, §3

[5] = target: T5, α-1 Adrenoceptors (Rat Aorta) (Rattus norvegicus, UniProt P23944); assay: Functional antagonism at α-1 adrenoceptors, rat aorta; assay type: cell-based; conditions: for Kb: read-out: In Vitro Characterization (pA2) Rat Aorta (converted)
T5 construct: Rat Aorta; from tissue; host or cells: rat aorta
T5 sequence (P23944 1-561): T3 sequence (P23944 1-561)
Description: (§6) Functional assays indicative of pharmacologically defined α-1 adrenoreceptors were used to further characterize compounds. Inhibition of phenylephrine (PE)-induced contraction of canine prostate smooth muscle can be correlated with α-1A adrenoreceptor activation. […] For each of these models, agonist dose response curves were repeated against increasing concentrations of test agent to derive a Schild plot [log ([…]) against log (molarity of test agent)] to determine the pA2.

[6] = target: T6, α-1A adrenoreceptor (rat vas deferens) (Rattus norvegicus, UniProt P43140); assay: Functional antagonism: inhibition of phenylephrine-induced contraction of rat vas deferens; assay type: cell-based; conditions: rat vas deferens, phenylephrine-induced contraction, Schild plot
T6 construct: from tissue; host or cells: rat vas deferens
T6 sequence (P43140 1-466): T1 sequence (P43140 1-466)
Description: as §6

α-1 adrenoreceptor = conditions: cited from earlier work

Structure (SMILES) | Ki [1] [nM] | Ki [2] [nM] | Ki [3] [nM] | Ki [4] [nM] | Kb [5] [nM] | In Vitro Characterization (pA2) Rat Vas [6] | In Vitro Characterization (pA2) Rat Aorta [5] | dose limiting side effects (α-1 adrenoreceptor; BPH treatment) | urinary flow rates and subjective symptom scores (α-1 adrenoreceptor; longer term studies, BPH) | clinical efficacy in BPH (α-1 adrenoreceptor; non-selective α-1 blockers)
COc1cc2[nH]c(=O)n(CCCCN3C[C@@H]4COc5cccc(OC)c5[C@H]4C3)c(=O)c2cc1OC (racemic) [Example 82, 3-[4-((±)-trans-9-Methoxy-1,2,3,3a,4,9b-hexahydro-[1]-benzopyrano[3,4-c]pyrrol-2-yl)butyl]-6,7-dimethoxy-quinazoline-2,4(1H,3H)-dione dihydrochloride] | 0.577 | 4.9 | 1.58 | 0.361 |  |  |  |  |  | 
COc1cccc2c1[C@@H]1CCN(CCCn3c(=O)[nH]c4c(sc5ncccc54)c3=O)C[C@H]1CO2 (relative stereo) [Example 84, 3-[3-(±)-trans-10-Methoxy-1,3,3,4a,5,10b-hexahydro-2H-[1]-benzopyrano[3,4-c]pyrido-3-yl)propyl]-pyrido[3',2':4,5]thieno[3,2-d]pyrimidine-2,4(1H,3H)-dione hydrochloride] | 0.479 | 4.92 | 1.12 | 0.617 |  |  |  |  |  | 
COc1cc2[nH]c(=O)n(CCCCN3CC[C@H]4c5c(OC)cccc5OC[C@@H]4C3)c(=O)c2cc1OC (relative stereo) [Example 86, 3-[4-((±)-trans-10-Methoxy-1,3,4,4a,5,10b-hexahydro-2H-[1]-benzopyrano[3,4-c]pyrido-3-yl)butyl]-6,7-dimethoxy-quinazoline-2,4(1H,3H)-dione hydrochloride] | 0.54 | 1.71 | 0.398 | 0.202 |  |  |  |  |  | 
COc1cccc2c1[C@@H]1CCN(CCCn3c(=O)[nH]c4c(sc5ccccc54)c3=O)C[C@H]1CO2 (relative stereo) [Example 89, 3-[3-((±)-trans-10-Methoxy-1,3,4,4a,5,10b-hexahydro-2H-[1]-benzopyrano[3,4-c]pyrido-3-yl)propyl]-[1]-benzthieno[3,2-d]pyrimidine-2,4(1H,3H)-dione hydrochloride] | 0.133 | 0.111 | 0.061 | 0.038 |  |  |  |  |  | 
COc1cccc2c1[C@@H]1CCN(CCn3c(=O)[nH]c4c(sc5ccccc54)c3=O)C[C@H]1CO2 (relative stereo) [Example 90, 3-[2-((±)-trans-10-Methoxy-1,3,4,4a,5,10b-hexahydro-2H-[1]-benzopyrano[3,4-c]pyrido-3-yl)ethyl]-[1]-benzthieno[3,2-d]pyrimidine-2,4(1H,3H)-dione hydrochloride] | 0.323 | 2.29 | 0.439 | 0.135 |  |  |  |  |  | 
COc1cccc2c1[C@@H]1CN(CCCCn3c(=O)[nH]c4c(sc5ccncc54)c3=O)C[C@@H]1CO2 [Example 28, 3-[4-((3aR,9bR)-cis-9-Methoxy-1,2,3,3a,4,9b-hexahydro-[1]-benzopyrano[3,4-c]pyrrol-2-yl)butyl]-pyrido[3',3':4,5]thieno[3,2-d]pyrimidine-2,4(1H,3H)-dione hydrochloride] |  |  |  |  | 0.195 | 9.39 |  |  |  | 
COc1ccc2sc3c(=O)n(CCCCN4C[C@@H]5COc6cccc(OC)c6[C@@H]5C4)c(=O)[nH]c3c2n1 [Example 30, 3-[4-((3aR,9bR)-cis-9-Methoxy-1,2,3,3a,4,9b-hexahydro-[1]-benzopyrano[3,4-c]pyrrol-2-yl)butyl]-8-methoxy-pyrido[2',3':4,5]thieno[3,2-d]pyrimidine-2,4(1H,3H)-dione hydrochloride] |  |  |  |  | 0.468 | 9.6 |  |  |  | 
COc1cc2nc(N3CCN(C(=O)C4CCCO4)CC3)nc(N)c2cc1OC (stereo not shown) [Terazosin, terazosin] |  |  |  |  |  |  | 8.65 | hypotension, dizziness, and muscle fatigue | significant improvements in urinary flow rates and subjective symptom scores | Clinical efficacy
